Results reported in PMC10023787, “Trio-pharmacophore DNA-encoded chemical library for simultaneous selection of fragments and linkers” (Nature Communications, 2023).
“Also recorded” adds a separate entry of the source. Like-named read-outs stand apart in the source and are kept apart here.

Tests used:
[1] = target: T1, MMP-2 (Homo sapiens, UniProt P08253); assay: MMP-2 inhibition assay (fluorogenic peptide substrate); assay type: biochemical; details: for remaining activity at 0.0156098 µM: fragment concentration 0.0156098 µM; for remaining activity at 0.0780488 µM: fragment concentration 0.0780488 µM; for remaining activity at 0.390244 µM: fragment concentration 0.390244 µM; for remaining activity at 1.95122 µM: fragment concentration 1.95122 µM; for remaining activity at 9.7561 µM: fragment concentration 9.7561 µM; for remaining activity at 48.7805 µM: fragment concentration 48.7805 µM; for remaining activity at 243.902 µM: fragment concentration 243.902 µM; for remaining activity at 0.0156 µM: concentration 0.0156 µM; for remaining activity at 0.39 µM: concentration 0.39 µM; for remaining activity at 1.95 µM: concentration 1.95 µM; for remaining activity at 9.76 µM: concentration 9.76 µM; for remaining activity at 48.78 µM: concentration 48.78 µM; for remaining activity at 243.9 µM: concentration 243.90 µM; for inhibitory effect: in words; for IC50: mean ± SE, n.d: not detected, Fig. 5d unit inferred, µM, read-out: IC50
T1 construct: purchased Sino Biological 10082-HNAH
T1 sequence (P08253 110-660): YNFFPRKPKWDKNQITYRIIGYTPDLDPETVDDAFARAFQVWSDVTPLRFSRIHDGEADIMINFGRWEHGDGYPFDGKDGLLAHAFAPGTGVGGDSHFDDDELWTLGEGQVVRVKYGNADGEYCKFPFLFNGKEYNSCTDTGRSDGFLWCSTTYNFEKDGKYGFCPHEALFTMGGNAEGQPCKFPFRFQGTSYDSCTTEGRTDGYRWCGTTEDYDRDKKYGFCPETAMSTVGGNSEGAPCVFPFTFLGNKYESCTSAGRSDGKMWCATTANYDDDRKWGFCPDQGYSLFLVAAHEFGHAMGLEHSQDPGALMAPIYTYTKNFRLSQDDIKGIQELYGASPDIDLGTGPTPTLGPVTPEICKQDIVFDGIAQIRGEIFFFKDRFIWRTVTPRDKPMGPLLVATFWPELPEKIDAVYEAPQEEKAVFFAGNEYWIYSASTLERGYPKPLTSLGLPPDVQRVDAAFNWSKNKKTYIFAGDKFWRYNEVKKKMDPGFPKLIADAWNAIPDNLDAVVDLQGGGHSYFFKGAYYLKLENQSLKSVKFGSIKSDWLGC
Summary of the method: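 Human proMMP-2 and proMMP-9 were activated with 1 mM APMA (37 °C, 2 h), then used at 6.5 nM (MMP-2) or 10 nM (MMP-9) in Tris/NaCl/CaCl2/Brij 35 buffer, pH 7.5. Enzyme was preincubated with compound 30 min at RT; 25 μM DNP-Pro-Leu-Gly-Met-Trp-Ser-Arg substrate was added and fluorescence (ex 280/em 360 nm) followed 30 min. IC50 from logistic fits of Vmax.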

[2] = target: T2, MMP-9 (Homo sapiens, UniProt P14780); assay: De novo T-DEL selection against MMP-9, NGS decoding; assay type: binding; details: for Enrichment Fold / Count: MMP9 selection; for Count: NGS sequence count per Compound ID (Figure 4a)
T2 construct: purchased Sino Biological 10327-HNAH
Source text: Matrix metalloproteinases (MMPs) are zinc-dependent endopeptidases capable of degrading and remodeling extracellular matrix components[46],[47]. They are attractive therapeutic targets as high expression levels were detected in various diseases, such as inflammatory diseases, and at different stages of cancers, including metastasis, invasion, and angiogenesis[47]–[53]. As shown in Supplementary Fig. 3c, we performed selections against the two gelatinases (human MMP-2 and human MMP-9) to identify binding fragments for later design and synthesis of small molecule inhibitors. After selection, the three sub-libraries were decoded, and the enrichment was calculated by dividing the post-selection fraction (count/total counts) by the pre-selection fraction (Fig. 4a and Supplementary Fig. 13).
4 µg of MMP-2/MMP-9 was dissolved in 100 µl of selection buffer containing 25 mM Tris-base, 10 mM CaCl2, 150 mM NaCl, 0.05% Tween 20, pH 7.5. 10 µl of 4-Aminophenylmercuric acetate (APMA) (100 mM) solution was added to the protein solution and incubated at 37 °C for 1 h. After activation, the solution was added on top of 40 µl pre-washed Ni-NTA resin and incubated for 30 min on a rotary shaker. The supernatant was discarded, and the resin was washed three times with the selection buffer.
For each independent selection, three sub-libraries were mixed in the selection buffer with a final concentration of 40 nM of each sub-library in 100 µl. The mixture was heat denatured at 90 °C for 1 min and slowly cooled down to allow the formation of the trio-pharmacophore library. The dynamic dual-pharmacophore DEL was provided by DyNAbind GmbH (Merck, DYNA001).
The assembled library was incubated with the protein-bound solid support for 2 h at RT on a rotary shaker. In parallel, selection on bare solid support served as the negative control to exclude promiscuous binders on the resin. After panning, the supernatant was discarded, and the resin was washed three times with 1 ml selection buffer. Finally, 100 µl of 50 mM Tris buffer, pH 7.4 was added to resuspend the resin and the resin was incubated at 95 °C for 5 min to denature the protein, release, and collect the bound library members.
The eluted library members were subjected to sample preparation for NGS. NGS preparation was achieved by two-step PCR. First, the individual selection was indexed using primers containing unique sequences corresponding to each selection. The amplified product was purified from 2% agarose gel. Second, the purified DNA from all selections were pooled in equal amount and subjected to the 2nd PCR step to attach sequences compatible with the NGS flow cell and the sequencing primers. NGS was performed by Novogene UK with Novaseq 6000. Raw data files (fastq files) obtained were decoded using a custom python script and excel. The sequence reads corresponding to each sample was retrieved by searching for the correct index unique to each selection. Then, the code region was extracted from each sequence and assigned to the corresponding identity. The count of each code in each selection sample was obtained by looping through the total reads and counting the occurrence of each code. The enrichment fold of each compound was calculated by first, dividing the count by the total count to get the abundance, second, the abundance after the selection was divided by the abundance of pre-selection to reflect the distribution change of the compound. Next, the enrichment fold was plotted against the count for each member of the library to give the scatter plots as in Fig. 4.

[3] = Figure 5a, read-out: Normalized activity (Mean)
[4] = Figure 5a, fragment concentration 1219.51 µM, read-out: Normalized activity (Mean)
[5] = MMP-2, read-out: Mean (dose-response, Supplementary fig 17)
[6] = MMP-2, read-out: Mean (MMP-2 dose-response, Supplementary fig 15)

T2 sequence (P14780 107-707 limits assumed): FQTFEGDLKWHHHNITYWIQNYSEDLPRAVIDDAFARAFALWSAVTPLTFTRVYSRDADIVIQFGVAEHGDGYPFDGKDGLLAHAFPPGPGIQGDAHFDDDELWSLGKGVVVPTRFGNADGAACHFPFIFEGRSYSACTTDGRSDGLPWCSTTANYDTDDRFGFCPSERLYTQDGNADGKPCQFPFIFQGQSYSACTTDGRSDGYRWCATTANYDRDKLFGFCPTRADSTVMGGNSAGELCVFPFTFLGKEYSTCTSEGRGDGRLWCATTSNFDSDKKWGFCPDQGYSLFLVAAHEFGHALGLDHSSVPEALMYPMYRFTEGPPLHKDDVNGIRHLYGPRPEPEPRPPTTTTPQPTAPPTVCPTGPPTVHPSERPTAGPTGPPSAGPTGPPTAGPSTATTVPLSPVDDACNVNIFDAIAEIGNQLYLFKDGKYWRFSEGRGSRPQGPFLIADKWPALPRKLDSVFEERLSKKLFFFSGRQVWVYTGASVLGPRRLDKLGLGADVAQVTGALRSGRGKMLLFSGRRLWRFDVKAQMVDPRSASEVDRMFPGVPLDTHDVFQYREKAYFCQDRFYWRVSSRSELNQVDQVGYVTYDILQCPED

O=C(O)CNC(=O)NC12CC3CC(CC(C3)C1)C2 [Compound 66]
remaining activity at 0.0156098 µM [1, 3]: 92.7% | remaining activity at 0.0780488 µM [1, 3]: 95.8% | remaining activity at 0.390244 µM [1, 3]: 93.9% | remaining activity at 1.95122 µM [1, 3]: 110% | remaining activity at 9.7561 µM [1, 3]: 93.7% | remaining activity at 48.7805 µM [1, 3]: 92.7% | remaining activity at 243.902 µM [1, 3]: 92.2% | remaining activity at 1219.51 µM [1, 4]: 85.5% | remaining activity at 0.0156 µM [1, 5]: 92.7% | remaining activity at 0.08 µM ([1]; MMP-2, concentration 0.08 µM, read-out: Mean (dose-response, Supplementary fig 17)): 95.8% | remaining activity at 0.39 µM [1, 5]: 93.9% | remaining activity at 1.95 µM [1, 5]: 110% | remaining activity at 9.76 µM [1, 5]: 93.7% | remaining activity at 48.78 µM [1, 5]: 92.7% | remaining activity at 243.9 µM [1, 5]: 92.2% | remaining activity at 1219.51 µM ([1]; MMP-2, concentration 1219.51 µM, read-out: Mean (dose-response, Supplementary fig 17)): 85.5% | inhibitory effect [1]: No inhibitory effects could be measured; also recorded: did not exhibit meaningful activity | Enrichment Fold ([2]; sub-library SL-A (Figure 4a)): 2.103 | Count ([2]; sub-library SL-A): 4968 | Enrichment Fold ([2]; sub-library SL-C (Figure 4a)): 0.3958 | Count ([2]; sub-library SL-C): 87

O=C(O)Cn1cnc2c(oc3ccccc32)c1=O [Compound 182]
remaining activity at 0.0152381 µM ([1]; Figure 5a, fragment concentration 0.0152381 µM, read-out: Normalized activity (Mean)): 97.3% | remaining activity at 0.0761905 µM ([1]; Figure 5a, fragment concentration 0.0761905 µM, read-out: Normalized activity (Mean)): 97.1% | remaining activity at 0.380952 µM ([1]; Figure 5a, fragment concentration 0.380952 µM, read-out: Normalized activity (Mean)): 98.7% | remaining activity at 1.90476 µM ([1]; Figure 5a, fragment concentration 1.90476 µM, read-out: Normalized activity (Mean)): 98.1% | remaining activity at 9.52381 µM ([1]; Figure 5a, fragment concentration 9.52381 µM, read-out: Normalized activity (Mean)): 87.4% | remaining activity at 47.619 µM ([1]; Figure 5a, fragment concentration 47.619 µM, read-out: Normalized activity (Mean)): 71.6% | remaining activity at 238.095 µM ([1]; Figure 5a, fragment concentration 238.095 µM, read-out: Normalized activity (Mean)): 16.9% | remaining activity at 1190.48 µM ([1]; Figure 5a, fragment concentration 1190.48 µM, read-out: Normalized activity (Mean)): 0% | remaining activity at 0.0152 µM ([1]; MMP-2, concentration 0.0152 µM, read-out: Mean (MMP-2, Supplementary fig 16)): 97.3% | remaining activity at 0.08 µM ([1]; MMP-2, concentration 0.08 µM, read-out: Mean (MMP-2, Supplementary fig 16)): 97.1% | remaining activity at 1.9 µM ([1]; MMP-2, concentration 1.90 µM, read-out: Mean (MMP-2, Supplementary fig 16)): 98.2% | remaining activity at 9.52 µM ([1]; MMP-2, concentration 9.52 µM, read-out: Mean (MMP-2, Supplementary fig 16)): 87.4% | remaining activity at 47.62 µM ([1]; MMP-2, concentration 47.62 µM, read-out: Mean (MMP-2, Supplementary fig 16)): 71.6% | remaining activity at 238.1 µM ([1]; MMP-2, concentration 238.10 µM, read-out: Mean (MMP-2, Supplementary fig 16)): 16.9% | remaining activity at 0.38 µM ([1]; MMP-2, concentration 0.38 µM, read-out: Mean (MMP-2, Supplementary fig 16)): 98.7% | IC50 [1]: 95.8 µM | MMP9 SL-A Count ([2]; NGS sequence count per SL-A member, de novo T-DEL selection against MMP-9 (Figure 4a source data)): 5190 | MMP9 SL-C Count ([2]; NGS sequence count per SL-C member, de novo T-DEL selection against MMP-9 (Figure 4a source data)): 816 | MMP9 SL-A Enrichment Fold ([2]; enrichment fold per SL-A member, de novo T-DEL selection against MMP-9 (Figure 4a source data)): 1.432 | MMP9 SL-C Enrichment Fold ([2]; enrichment fold per SL-C member, de novo T-DEL selection against MMP-9 (Figure 4a source data)): 0.7692

Cc1cc(=O)[nH]c(-n2nc(C)c(CCC(=O)O)c2C)n1 [Compound 693]
remaining activity at 0.0156098 µM [1, 3]: 93% | remaining activity at 0.0780488 µM [1, 3]: 96.4% | remaining activity at 0.390244 µM [1, 3]: 90.7% | remaining activity at 1.95122 µM [1, 3]: 92.4% | remaining activity at 9.7561 µM [1, 3]: 83.6% | remaining activity at 48.7805 µM [1, 3]: 70.5% | remaining activity at 243.902 µM [1, 3]: 41.9% | remaining activity at 1219.51 µM [1, 4]: 5.76% | remaining activity at 0.0156 µM [1, 6]: 93% | remaining activity at 0.08 µM ([1]; MMP-2, concentration 0.08 µM, read-out: Mean (MMP-2 dose-response, Supplementary fig 15)): 96.3% | remaining activity at 0.39 µM [1, 6]: 90.7% | remaining activity at 1.95 µM [1, 6]: 92.4% | remaining activity at 9.75 µM ([1]; MMP-2, concentration 9.75 µM, read-out: Mean (MMP-2 dose-response, Supplementary fig 15)): 83.6% | remaining activity at 9.76 µM [1, 6]: 83.6% | remaining activity at 48.76 µM ([1]; MMP-2, concentration 48.76 µM, read-out: Mean (MMP-2 dose-response, Supplementary fig 15)): 70.5% | remaining activity at 48.78 µM [1, 6]: 70.5% | remaining activity at 243.8 µM ([1]; MMP-2, concentration 243.80 µM, read-out: Mean (MMP-2 dose-response, Supplementary fig 15)): 41.9% | remaining activity at 243.9 µM [1, 6]: 41.9% | remaining activity at 1219.51 µM ([1]; MMP-2, concentration 1219.51 µM, read-out: Mean (MMP-2 dose-response, Supplementary fig 15)): 5.76% | inhibitory effect [1]: high µM range | IC50 [1]: 169 ± 15.8 µM | MMP9 SL-A Count ([2]; NGS sequence count of sub-library SL-A building block, de novo T-DEL selection against MMP-9): 8460 | MMP9 SL-C Count ([2]; NGS sequence count of sub-library SL-C building block, de novo T-DEL selection against MMP-9): 1032 | MMP9 SL-A Enrichment Fold ([2]; sub-library SL-A building block, de novo T-DEL selection against MMP-9): 3.659 | MMP9 SL-C Enrichment Fold ([2]; sub-library SL-C building block, de novo T-DEL selection against MMP-9): 1.167
